Values after ≈ are worked out from the molar mass of the structure shown.
Legend:
[1] = test system: E. coli spontaneous mutants; assay: Broth microdilution MIC of spontaneous mutants; format: cell-based, Escherichia coli
Outline: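 Spontaneous mutants from drug selection plates were tested by CLSI broth microdilution in MHB II with two-fold serial drug dilutions. Inoculum was about 5×10^5 CFU/mL, incubated aerobically at 35° C. for 18-20 hr. MIC was the lowest concentration inhibiting visible growth.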

E. coli ATCC 35218 = assay: Time-kill assay; format: cell-based, Escherichia coli; conditions: 2×, 4×, 8× MIC; 2, 6, 24 hr
Escherichia coli = assay: Broth microdilution MIC, 50 clinical isolates (incl. ESBL, one NDM-1); format: cell-based
Outline: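 CLSI broth microdilution in cation-adjusted Mueller Hinton broth, with 3% lysed horse blood added for streptococci, which were incubated with CO2.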

`CO[C@H]1/C=C/O[C@@]2(C)Oc3c(C)c(O)c4c(O)c(c5c(nc6cc(C)ccn65)c4c3C2=O)NC(=O)/C(C)=C\C=C\[C@H](C)[C@H](O)[C@@H](C)[C@@H](O)[C@@H](C)[C@H](OC(C)=O)[C@@H]1C` [rifaximin] was tested, and the MIC ([1]; E. coli MMX 1312, selected on ceftriaxone 4X MIC, Colony A) was 3 µg/mL, the MIC ([1]; E. coli MMX 1312, selected on ceftriaxone 4X MIC, Colony B) was 8 µg/mL and the MIC ([1]; E. coli MMX 1312, selected on ceftriaxone 4X MIC, Colony C) was 8 µg/mL. The MIC ([1]; E. coli MMX 1312, selected on ceftriaxone 8X MIC, Colony A) was 3 µg/mL, the MIC ([1]; E. coli MMX 1312, selected on ceftriaxone 8X MIC, Colony B) was 3 µg/mL and the MIC ([1]; E. coli MMX 1312, selected on ceftriaxone 8X MIC, Colony C) was 3 µg/mL. For the same compound, the MIC ([1]; E. coli MMX 1312 Parent) was 8 µg/mL, the MIC ([1]; E. coli MMX 1312 Parent (Table 49)) was 8 µg/mL and the MIC ([1]; E. coli MMX 1312 mutant selected on meropenem 4X MIC, colony A) was 8 µg/mL. The MIC ([1]; E. coli MMX 1312 mutant selected on meropenem 4X MIC, colony B) was 8 µg/mL, the MIC ([1]; E. coli MMX 1312 mutant selected on meropenem 4X MIC, colony C) was 8 µg/mL and the MIC ([1]; E. coli MMX 1312 mutant selected on meropenem 8X MIC, colony A) was 8 µg/mL. For the same compound, the MIC ([1]; E. coli MMX 1312 mutant selected on meropenem 8X MIC, colony B) was 8 µg/mL, the MIC ([1]; E. coli MMX 1312 mutant selected on meropenem 8X MIC, colony C) was 4 µg/mL and the “broth microdilution MIC of selected colonies relative to parent strain” value ([1]; colonies selected at 4× and 8× the MIC) was “several-fold higher”. The “time-kill kinetics outcome (bactericidal = ≥3 log reduction in CFU per mL)” value (E. coli ATCC 35218) was “bacteriostatic at 8× the MIC with regrowth at 24 hr for both 2× and 4× the MIC”, the MIC50 (Escherichia coli) was 8 µg/mL (≈ 10.2 µM) and the MIC90 (Escherichia coli) was 16 µg/mL (≈ 20.4 µM). The MIC range (Escherichia coli) was 1 to 32 µg/mL, the Mode (Escherichia coli) was 8 µg/mL and the “Cumulative percentage of isolates inhibited at MIC” value (Escherichia coli; 1 μg/mL) was 2.0%. The “Number of test isolates at MIC” value (Escherichia coli; 1 μg/mL) was 1, the “Cumulative percentage of isolates inhibited at MIC” value (Escherichia coli; 2 μg/mL) was 6.0% and the “Number of test isolates at MIC” value (Escherichia coli; 2 μg/mL) was 2. The “Cumulative percentage of isolates inhibited at MIC” value (Escherichia coli; 4 μg/mL) was 34.0%, the “Number of test isolates at MIC” value (Escherichia coli; 4 μg/mL) was 14 and the “Cumulative percentage of isolates inhibited at MIC” value (Escherichia coli; 8 μg/mL) was 80.0%. The “Number of test isolates at MIC” value (Escherichia coli; 8 μg/mL) was 23, the “Cumulative percentage of isolates inhibited at MIC” value (Escherichia coli; 16 μg/mL) was 98.0% and the “Number of test isolates at MIC” value (Escherichia coli; 16 μg/mL) was 9. The “Cumulative percentage of isolates inhibited at MIC” value (Escherichia coli; 32 μg/mL) was 100.0% and the “Number of test isolates at MIC” value (Escherichia coli; 32 μg/mL) was 1.

Source: patent US20210386367A1, “DEVICES AND SYSTEMS FOR GASTROINTESTINAL MICROBIOME DETECTION AND MANIPULATION” (Progenity, Inc., priority 2018, published 2021)
